Results reported in US11840686B2, “Modulation of prekallikrein (PKK) expression” (Ionis Pharmaceuticals, Inc., priority 2013, dated 2023).
Strand notation (5' to 3'): a small letter for the sugar, then the base; units joined by * are phosphorothioate-linked, units joined directly phosphodiester-linked; [ ] holds rarer units or linkages, { } end groups; capitals alone tell only the bases. e = 2'-O-(2-methoxyethyl) (MOE); [5mC] = 5-methylcytosine; d = 2'-deoxy (DNA)

System: human PKK mRNA
Test: Antisense inhibition of human PKK mRNA in HepaRG cells, 3,000 nM (Example 1)
Type: cell-based
Settings: relative to untreated control cells
Outline: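 Values give percent PKK mRNA reduction relative to untreated controls, normalised to RIBOGREEN total RNA. mRNA was quantified by real-time PCR (RTS3454) about 24 h after electroporation. Each 20-mer MOE gapmer was delivered at 3,000 nM into 20,000 HepaRG cells per well.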

[1] = Table 1, PKK mRNA, HepaRG cells, 3,000 nM, electroporation, ~24 h
[2] = Table 2, PKK mRNA, HepaRG cells, 3,000 nM, electroporation, ~24 h
[3] = Table 4, HepaRG cells, electroporation with 3,000 nM antisense oligonucleotide, approx. 24 hours, PKK mRNA by RT-PCR (RTS3454)
[4] = Table 3, HepaRG cells, electroporation with 3,000 nM antisense oligonucleotide, approx. 24 hours, PKK mRNA by RT-PCR (RTS3454)

530935 (antisense eG*e[5mC]*eT*eT*eG*dA*dA*dT*dA*dA*dA*dA*dT*d[5mC]*dA*eT*eT*e[5mC]*eT*eG) [compound 530935]
% inhibition [1]: 0%

531068 (e[5mC]*e[5mC]*eA*eT*eG*dT*dA*d[5mC]*dT*d[5mC]*dA*dG*d[5mC]*dG*dA*e[5mC]*eT*eT*eT*eG; antisense) [compound 531068]
% inhibition [2]: 59%

531180 (antisense e[5mC]*e[5mC]*eT*e[5mC]*eT*dT*dA*dA*dG*dT*d[5mC]*dA*d[5mC]*d[5mC]*dA*eT*eA*eG*eA*e[5mC]) [compound 531180]
% inhibition [3]: 45%

530977 (antisense eT*e[5mC]*e[5mC]*eA*eG*dA*dT*dA*dT*dG*dG*dT*dG*dT*dT*eT*eT*e[5mC]*eT*eT) [compound 530977]
% inhibition [1]: 55%

531227 (eT*eA*e[5mC]*e[5mC]*eA*dA*dT*dT*dT*d[5mC]*dT*dG*dA*dA*dA*eG*eG*eG*e[5mC]*eA; antisense) [compound 531227]
% inhibition [3]: 72%

530934 (antisense e[5mC]*eT*eT*e[5mC]*eT*dT*dG*dG*dA*dG*dG*dT*dG*dA*dG*eT*e[5mC]*eT*e[5mC]*eT) [compound 530934]
% inhibition [1]: 54%

531042 (antisense eT*eT*eA*e[5mC]*e[5mC]*dA*dA*dA*dG*dG*dA*dA*dT*dA*dT*eT*eT*eA*e[5mC]*e[5mC]) [compound 531042]
% inhibition [2]: 11%

531147 (antisense e[5mC]*e[5mC]*eA*eT*eT*dA*dT*dT*dT*d[5mC]*d[5mC]*dA*dT*d[5mC]*dA*e[5mC]*e[5mC]*eT*eG*e[5mC]) [compound 531147]
% inhibition [4]: 18%

531087 (e[5mC]*e[5mC]*eA*eG*eG*dT*dG*dT*dG*dG*dA*d[5mC]*dA*dG*d[5mC]*eA*eG*e[5mC]*eT*eG; antisense) [compound 531087]
% inhibition [4]: 52%

531084 (eA*eT*eA*eG*eG*dG*dA*d[5mC]*dA*d[5mC]*dA*dA*d[5mC]*d[5mC]*dA*eA*eG*eG*eA*eA; antisense) [compound 531084]
% inhibition [4]: 25%

531086 (e[5mC]*e[5mC]*eT*eG*e[5mC]*d[5mC]*dT*d[5mC]*d[5mC]*dT*dG*dG*d[5mC]*dA*dG*e[5mC]*e[5mC]*eT*eT*e[5mC]; antisense) [compound 531086]
% inhibition [4]: 48%

530981 (antisense eT*eT*e[5mC]*eT*eT*dT*dT*dG*d[5mC]*dA*dG*dG*dT*dT*dA*eA*eA*eA*eG*eG) [compound 530981]
% inhibition [1]: 0%

531073 (e[5mC]*e[5mC]*e[5mC]*eA*eG*dG*d[5mC]*dT*d[5mC]*dA*dG*dA*dA*dT*dT*eT*eG*eA*e[5mC]*eT; antisense) [compound 531073]
% inhibition [2]: 51%

530963 (antisense eT*eG*eG*eT*eG*d[5mC]*dA*d[5mC]*d[5mC]*dT*dT*dT*dT*dT*dT*eG*eG*e[5mC]*eA*eT) [compound 530963]
% inhibition [1]: 78%

531126 (antisense eT*eT*eT*eT*eG*dA*dA*dT*d[5mC]*dT*dT*d[5mC]*dA*dT*dT*e[5mC]*eA*eA*eA*eG) [compound 531126]
% inhibition [4]: 0%

530930 (antisense eA*eA*eA*eT*eG*dA*dA*d[5mC]*dG*dG*dT*d[5mC]*dT*dT*d[5mC]*eA*eA*eG*e[5mC]*eT) [compound 530930]
% inhibition [1]: 17%

531015 (eT*eA*eT*eG*eA*dG*dT*dG*dA*d[5mC]*d[5mC]*d[5mC]*dT*d[5mC]*d[5mC]*eA*e[5mC]*eA*e[5mC]*eA; antisense) [compound 531015]
% inhibition [2]: 52%

531090 (eA*e[5mC]*eA*eG*eA*dA*dA*d[5mC]*d[5mC]*dA*dT*dG*dA*dT*dG*eT*eT*eG*e[5mC]*eT; antisense) [compound 531090]
% inhibition [4]: 59%

531210 (eA*eG*eA*e[5mC]*eA*dT*dT*dG*dT*d[5mC]*dA*dA*dA*dT*dG*eT*e[5mC]*e[5mC]*e[5mC]*e[5mC]; antisense) [compound 531210]
% inhibition [3]: 60%

531074 (e[5mC]*eT*eT*eT*eG*d[5mC]*dA*dG*dA*dT*dG*dA*dG*dG*dA*e[5mC]*e[5mC]*e[5mC]*e[5mC]*e[5mC]; antisense) [compound 531074]
% inhibition [2]: 67%

531138 (antisense eT*eT*eT*eA*eA*dA*dT*dG*dT*dG*dT*d[5mC]*dA*d[5mC]*dT*eT*eA*eA*eT*e[5mC]) [compound 531138]
% inhibition [4]: 0%

531199 (e[5mC]*eT*eT*eT*eG*dA*dA*dT*dA*dG*dA*dA*dA*dA*dT*eG*eA*e[5mC]*eT*eA; antisense) [compound 531199]
% inhibition [3]: 1%

531118 (antisense eG*e[5mC]*e[5mC]*eT*eA*dA*dA*dT*dG*dT*dA*dA*dG*dA*dG*e[5mC]*eT*eA*eA*eA) [compound 531118]
% inhibition [4]: 26%

531144 (antisense eT*eG*eA*eA*eG*dA*dT*dT*d[5mC]*dT*dA*dT*dT*dT*dA*eA*e[5mC]*eA*eA*eA) [compound 531144]
% inhibition [4]: 0%

531051 (antisense eA*eT*e[5mC]*e[5mC]*eG*dT*dT*dG*dG*dG*dT*dT*dA*dT*dT*eT*eT*eA*eT*eA) [compound 531051]
% inhibition [2]: 51%

531048 (antisense eT*eT*eA*eT*eA*dA*dT*d[5mC]*dT*dT*dG*dA*dT*dA*dT*e[5mC]*eT*eT*eT*eT) [compound 531048]
% inhibition [2]: 42%

531103 (eA*e[5mC]*eT*e[5mC]*eA*dT*dT*dG*d[5mC]*d[5mC]*dT*dT*dA*dA*d[5mC]*eT*e[5mC]*eA*eG*eG; antisense) [compound 531103]
% inhibition [4]: 40%

530985 (antisense eA*eA*eA*eT*eT*dT*dT*dA*dG*dA*dA*dT*dG*dG*d[5mC]*eA*eG*eG*eG*eT) [compound 530985]
% inhibition [1]: 32%

531008 (eT*eG*e[5mC]*eT*eG*dG*dA*dA*dG*dA*dT*dG*dT*dT*d[5mC]*eA*eT*eG*eT*eG; antisense) [compound 531008]
% inhibition [2]: 51%

531174 (antisense eT*eG*eT*eT*eA*dA*dG*dT*dA*dT*dA*dT*dT*dA*dA*e[5mC]*eT*eA*eT*eT) [compound 531174]
% inhibition [3]: 10%

531219 (e[5mC]*eT*eT*e[5mC]*eT*d[5mC]*dT*dA*dT*d[5mC]*dT*d[5mC]*d[5mC]*d[5mC]*dA*eG*eT*eG*eT*eT; antisense) [compound 531219]
% inhibition [3]: 61%

530961 (antisense eT*eT*eG*eG*e[5mC]*dA*dT*dT*d[5mC]*dT*dT*d[5mC]*dA*dA*d[5mC]*eA*e[5mC]*eT*eG*e[5mC]) [compound 530961]
% inhibition [1]: 88%

531167 (antisense e[5mC]*eA*eA*eG*eA*dA*dA*d[5mC]*d[5mC]*dA*d[5mC]*d[5mC]*dA*dA*dA*eG*eG*eA*eA*eG) [compound 531167]
% inhibition [3]: 37%

530944 (antisense e[5mC]*eA*eG*eA*e[5mC]*dA*dT*d[5mC]*d[5mC]*dA*d[5mC]*dA*dG*dG*dA*eA*eA*e[5mC]*eT*eG) [compound 530944]
% inhibition [1]: 0%

530941 (antisense eA*eA*e[5mC]*eT*eG*dT*dA*dG*d[5mC]*dA*dA*dA*d[5mC]*dA*dA*eG*eG*eA*eA*eA) [compound 530941]
% inhibition [1]: 22%

531062 (antisense e[5mC]*eA*eG*eG*eT*dT*dG*d[5mC]*dT*d[5mC]*d[5mC]*d[5mC]*dT*dG*d[5mC]*eG*eG*eG*e[5mC]*eA) [compound 531062]
% inhibition [2]: 39%

530957 (antisense eG*eG*e[5mC]*eA*eA*dG*d[5mC]*dA*d[5mC]*dT*dT*dA*dT*dT*dT*eG*eA*eT*eG*eA) [compound 530957]
% inhibition [1]: 56%

531032 (antisense eT*eG*eG*eT*eT*dT*dT*dT*dG*dG*dA*dA*dT*dT*d[5mC]*eA*eG*eT*eG*eT) [compound 531032]
% inhibition [2]: 67%

531218 (eG*eA*eT*eA*eA*dT*dT*d[5mC]*dT*dT*dT*dT*d[5mC]*dA*d[5mC]*eA*eG*eA*e[5mC]*eA; antisense) [compound 531218]
% inhibition [3]: 72%

530943 (antisense eA*eT*e[5mC]*e[5mC]*eA*d[5mC]*dA*dG*dG*dA*dA*dA*d[5mC]*dT*dG*eT*eA*eG*e[5mC]*eA) [compound 530943]
% inhibition [1]: 56%

531191 (eA*eA*eG*eT*eG*dT*dA*dT*dT*dG*d[5mC]*d[5mC]*dT*dA*dG*eA*eT*eT*eT*e[5mC]; antisense) [compound 531191]
% inhibition [3]: 37%

531189 (eA*eG*eG*eT*eG*dT*dT*d[5mC]*dT*dT*dG*d[5mC]*dT*dT*dA*eT*e[5mC]*e[5mC]*eT*e[5mC]; antisense) [compound 531189]
% inhibition [3]: 63%

531207 (e[5mC]*e[5mC]*eA*e[5mC]*eT*dT*dA*dT*dT*dT*dG*dA*dT*dG*dA*e[5mC]*e[5mC]*eA*e[5mC]*eA; antisense) [compound 531207]
% inhibition [3]: 64%

531101 (eA*eT*eG*eT*eA*dA*dG*dT*dT*dA*d[5mC]*dA*dA*dG*d[5mC]*e[5mC]*eA*e[5mC]*eT*eA; antisense) [compound 531101]
% inhibition [4]: 37%

530990 (eA*eT*eT*e[5mC]*eT*dT*d[5mC]*dT*d[5mC]*d[5mC]*dT*d[5mC]*d[5mC]*dA*dA*eA*eG*eT*e[5mC]*eA; antisense) [compound 530990]
% inhibition [1]: 32%
